# From patent US20060160869A1, “Ubiquitin ligase inhibitors” (Rigel Pharmaceuticals, Inc., priority 2005, published 2006)
# Assays:
# Type in all cases: biochemical
# MDM2 = MDM2 (Homo sapiens, UniProt Q00987); assay: Plate-based E3 ligase assay, MDM2 autoubiquitination (MDM2-FLAG); settings: Table 2; read-out: MDM2 IC50
# Protocol: (§1) E3 (His-APC11/APC2—“APC”) auto-ubiquitination was measured as described in U.S. patent application Ser. No. 09/826,312 (Publication No. US-2002-0042083-A1), which is incorporated herein in its entirety. Details of the protocol are described below. Activity in the presence of the compound was determined relative to a parallel control in which only DMSO was added. Values of the IC50 were typically determined using 6 or 8 different concentrations of the compound, although as few as 2 concentrations may be used to approximate the IC50 value.
# (§2) Nickel-coated 96-well plates (Pierce 15242) were blocked for 1 hour with 100 μl of blocking buffer at room temperature. The plates were washed 4 times with 225 μl of 1×PBS and 80 μl of the reaction buffer were added that contained 100 ng/well of Flag-ubiquitin. To this, 10 μl of the test compound diluted in DMSO were added. After the test compound was added, 10 μl of E1 (human), E2 (Ubch5c), and APC in Protein Buffer was added to obtain a final concentration of 5 ng/well of E1, 20 ng/well: of E2 and 100 ng/well of APC. The plate were shaken for 10 minutes and incubated at room temperature for 1 hour. After incubation, the plates were washed 4 times with 225 μl of 1×PBS and 100 μl/well of Antibody Mix were added to each well. The plates were incubate at room temperature for another hour after which they were washed 4 times with 225 μl of 1×PBS and 100 μl/well of Lumino substrate were added to each well. The luminescence was measured by using a BMG luminescence microplate reader.
# In similar manner, autoubiquitination of the E3 MDM2 was determined (MDM2-FLAG). Further instruction in such assays can be found in U.S. patent application Ser. No. 10/108,767 (Publication No. US-2003-0104474 A1), which is incorporated herein in its entirety.
# hMDM2 Plate/Gel is Mouse double minute 2, human homolog. This protein belongs to the E3 RING finger ligase group.
# [1] = biological target: E3 (His-APC11/APC2, "APC") (Homo sapiens, UniProt Q9NYG5+Q9UJX6); assay: Plate-based E3 ligase assay (APC FLAG), auto-ubiquitination; settings: Table 2; read-out: APC IC50
# E3 (His-APC11/APC2, "APC"), sequence (Q9NYG5 whole entry): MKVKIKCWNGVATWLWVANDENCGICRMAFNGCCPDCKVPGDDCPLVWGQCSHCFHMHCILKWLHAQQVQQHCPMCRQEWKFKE
# E3 (His-APC11/APC2, "APC"), sequence (Q9UJX6 whole entry): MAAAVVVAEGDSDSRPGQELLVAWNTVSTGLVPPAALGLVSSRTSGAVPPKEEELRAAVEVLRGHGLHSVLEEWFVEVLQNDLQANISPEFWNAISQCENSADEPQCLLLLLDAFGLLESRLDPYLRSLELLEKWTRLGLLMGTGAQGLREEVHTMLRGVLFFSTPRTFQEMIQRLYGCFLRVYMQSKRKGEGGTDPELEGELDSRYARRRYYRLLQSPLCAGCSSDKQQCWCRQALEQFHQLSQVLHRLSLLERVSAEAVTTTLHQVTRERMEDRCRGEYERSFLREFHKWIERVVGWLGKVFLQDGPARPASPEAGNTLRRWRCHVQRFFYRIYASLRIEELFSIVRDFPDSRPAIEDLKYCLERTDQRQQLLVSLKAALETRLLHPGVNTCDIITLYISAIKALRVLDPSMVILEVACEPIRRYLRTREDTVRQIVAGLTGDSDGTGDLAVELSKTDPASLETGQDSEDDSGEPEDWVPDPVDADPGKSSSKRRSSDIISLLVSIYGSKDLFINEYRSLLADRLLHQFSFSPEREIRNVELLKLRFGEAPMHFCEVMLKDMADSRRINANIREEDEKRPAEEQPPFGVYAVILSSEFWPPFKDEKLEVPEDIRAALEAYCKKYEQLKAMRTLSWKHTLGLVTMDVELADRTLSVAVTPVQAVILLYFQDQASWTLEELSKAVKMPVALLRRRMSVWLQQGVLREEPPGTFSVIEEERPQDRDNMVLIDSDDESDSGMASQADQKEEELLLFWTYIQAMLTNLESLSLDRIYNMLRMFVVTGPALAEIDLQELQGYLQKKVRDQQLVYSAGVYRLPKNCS
# Protocol: as §1, §2
# APC Plate/gel is Anaphase Promoting Complex. This protein also belongs to E3 RING finger ligase group.
# E2 (Ubch5c) = E2 (Ubch5c) (Homo sapiens, UniProt P61077); assay: E2 ligase assay, E2 auto-ubiquitination; settings: Table 2
# E2 (Ubch5c), sequence (P61077 whole entry): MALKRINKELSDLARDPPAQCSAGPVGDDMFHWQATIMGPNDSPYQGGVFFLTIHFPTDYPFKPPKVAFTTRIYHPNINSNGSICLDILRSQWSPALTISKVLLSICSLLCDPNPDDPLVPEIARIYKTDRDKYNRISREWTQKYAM
# Protocol: E2 (Ubch5c) auto-ubiquitination was measured as described in U.S. patent application Ser. No. 09/826,312 (Publication No. US-2002-0042083-A1), which is incorporated herein in its entirety. Details of the protocol are described below. Activity in the presence of the test compound was determined relative to a parallel control in which only DMSO was added. The IC50 values were typically determined using 6 or 8 different concentrations of compound, although as few as 2 concentrations may be used to approximate IC50 values.
# Corning 96-well plates (Corning 3650) were blocked with 100 μl of Blocking Buffer for 1 hour at room temperature. The plates were washed for 4 times with 225 μl of 1×PBS and 80 μl of the reaction buffer were added that contained 100 ng/well of Flag-ubiquitin. To this, 10 μl of the test compound diluted in DMSO were added. After the test compound was added, 10 μl of E1 (human) and E2 (Ubch5c) in Protein Buffer were added to obtain a final concentration of 5 ng/well of E1 and 20 ng/well of E2. The plates were shaken for 10 minutes and incubated at room temperature for 1 hour. After incubation, the reaction was stopped by adding 25 μl of loading buffer (non-reducing) per well and the plates were heated at 95° C. for 5 minutes. An aliquot of each well was run on a 10% NugePage Gel and analyzed by Western Blot using the antibody mix and Lumino substrate described below. The luminescence was measured using a BMG luminescence microplate reader.
# MDM2, sequence (Q00987 whole entry): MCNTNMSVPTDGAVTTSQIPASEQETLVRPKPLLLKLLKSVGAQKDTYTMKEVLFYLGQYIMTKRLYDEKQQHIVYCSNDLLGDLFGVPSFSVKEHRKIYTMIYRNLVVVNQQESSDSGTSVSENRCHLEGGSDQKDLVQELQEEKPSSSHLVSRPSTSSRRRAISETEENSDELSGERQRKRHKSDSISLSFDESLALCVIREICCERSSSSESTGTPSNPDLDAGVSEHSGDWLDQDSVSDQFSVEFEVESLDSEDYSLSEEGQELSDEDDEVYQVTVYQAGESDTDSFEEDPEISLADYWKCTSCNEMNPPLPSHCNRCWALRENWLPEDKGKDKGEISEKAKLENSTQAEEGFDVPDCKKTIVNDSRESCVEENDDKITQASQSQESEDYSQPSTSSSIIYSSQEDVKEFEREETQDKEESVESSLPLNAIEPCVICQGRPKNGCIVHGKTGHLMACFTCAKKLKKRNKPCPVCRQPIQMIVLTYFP
Compound,IC50 (MDM2),IC50 [1],IC50 (E2 (Ubch5c))
Cc1sc(N(C)Cc2ccc(C(=O)NCc3cccc(CN)c3)cc2)nc1-c1ccccc1 [compound 14],≥ 20 µM,≥ 20 µM,
CN(Cc1ccc(C(=O)NC(Cc2ccccc2)C(=O)O)cc1)c1nc(-c2ccc(Cl)cc2)cs1 (stereo not drawn) [compound 15],1 to 20 µM,1 to 20 µM,
CCN(Cc1ccc(C(=O)NCc2cccc(CN)c2)cc1)c1nc(-c2ccc(-c3ccccc3)cc2)cs1 [compound 65],1 to 20 µM,1 to 20 µM,
"CCN(Cc1ccc(C(=O)NCC(=O)O)cc1)c1nc(-c2ccc(Cl)cc2)cs1 [compound 146, N-(4-{[[4-(4-chlorophenyl)-1,3-thiazol-2-yl](ethyl)amino]methyl}benzoyl)glycine]",≥ 20 µM,,
COc1cccc(-c2csc(N(Cc3ccccc3)Cc3ccc(C(=O)NCC(=O)O)cc3)n2)c1 [compound 177],< 1 µM,,
O=C(O)CNC(=O)c1ccc(CN(CCc2ccccc2)c2nc(-c3ccccc3)cs2)cc1 [compound 186],1 to 20 µM,,
CCN(Cc1ccc(C(=O)NCC(=O)O)cc1)c1nc(-c2ccc(-c3ccccc3)cc2)cs1 [compound 193],1 to 20 µM,,
COc1ccc(OC)c(-c2csc(N(Cc3ccccc3)Cc3ccc(C(=O)NCC(=O)O)cc3)n2)c1 [compound 207],1 to 20 µM,,
COc1ccc(OC)c(-c2csc(N(Cc3ccc(C(=O)NCC(=O)O)cc3)c3ccccc3F)n2)c1 [compound 215],< 1 µM,1 to 20 µM,
O=C(O)CNC(=O)c1ccc(CN(Cc2ccccc2)c2nc(-c3ccccc3)cs2)cc1 [compound 216],1 to 20 µM,,
COc1ccc(-c2csc(N(Cc3ccc(C(=O)N4CCNCC4)cc3)Cc3cccc(OC(F)(F)F)c3)n2)cc1 [compound 222],≥ 20 µM,≥ 20 µM,
COc1cccc(CN(Cc2ccc(C(=O)N3CCNCC3)cc2)c2nc(-c3cccc([N+](=O)[O-])c3)cs2)c1OC [compound 224],≥ 20 µM,≥ 20 µM,
O=C(c1ccc(CN(Cc2cccc(OC(F)(F)F)c2)c2nc(-c3cccc([N+](=O)[O-])c3)cs2)cc1)N1CCNCC1 [compound 228],≥ 20 µM,1 to 20 µM,
Cc1ccc(-c2csc(N(Cc3ccc(C(=O)N4CCNCC4)cc3)Cc3cccc(OC(F)(F)F)c3)n2)cc1 [compound 235],1 to 20 µM,1 to 20 µM,
O=C(c1ccc(CN(Cc2cccc(OC(F)(F)F)c2)c2nc(-c3ccc(Cl)cc3)cs2)cc1)N1CCNCC1 [compound 251],≥ 20 µM,≥ 20 µM,
COc1ccc(OC)c(-c2csc(N(Cc3ccc(C(=O)N4CCNCC4)cc3)Cc3cccc(OC(F)(F)F)c3)n2)c1 [compound 267],≥ 20 µM,1 to 20 µM,
O=C(c1ccc(CN(c2nc(-c3ccc(Cl)cc3)cs2)c2cccc3ccccc23)cc1)N1CCNCC1 [compound 289],≥ 20 µM,≥ 20 µM,
COc1cccc(CN(Cc2ccc(C(=O)N3CCNCC3)cc2)c2nc(-c3ccc(Cl)c(Cl)c3)cs2)c1OC [compound 297],1 to 20 µM,1 to 20 µM,≥ 20 µM
O=C(c1ccc(CN(Cc2cccc(OC(F)(F)F)c2)c2nc(-c3ccc(Br)cc3)cs2)cc1)N1CCNCC1 [compound 343],1 to 20 µM,1 to 20 µM,
O=C(c1ccc(CN(Cc2cccc(OC(F)(F)F)c2)c2nc(-c3ccc(Cl)c(Cl)c3)cs2)cc1)N1CCNCC1 [compound 359],1 to 20 µM,1 to 20 µM,

# Continued, values first:
IC50 (MDM2),IC50 [1],IC50 (E2 (Ubch5c)),Compound
≥ 20 µM,≥ 20 µM,,COc1ccc(-c2csc(N(CCOc3ccccc3)Cc3ccc(C(=O)N4CCNCC4)cc3)n2)cc1 [compound 223]
≥ 20 µM,≥ 20 µM,,CC(C)N(CCN(Cc1ccc(C(=O)N2CCNCC2)cc1)c1nc(-c2ccccc2Cl)cs1)C(C)C [compound 225]
≥ 20 µM,≥ 20 µM,,COc1ccc(-c2csc(N(CCN(C(C)C)C(C)C)Cc3ccc(C(=O)N4CCNCC4)cc3)n2)cc1 [compound 227]
≥ 20 µM,1 to 20 µM,,COc1cccc(CN(Cc2ccc(C(=O)N3CCNCC3)cc2)c2nc(-c3ccc(C)cc3)cs2)c1OC [compound 230]
≥ 20 µM,≥ 20 µM,,COc1cccc(-c2csc(N(CCN(C(C)C)C(C)C)Cc3ccc(C(=O)N4CCNCC4)cc3)n2)c1 [compound 231]
≥ 20 µM,1 to 20 µM,,COc1cccc(CN(Cc2ccc(C(=O)N3CCNCC3)cc2)c2nc(-c3ccc(Cl)cc3)cs2)c1OC [compound 245]
≥ 20 µM,1 to 20 µM,,O=C(c1ccc(CN(CCOc2ccccc2)c2nc(-c3ccc(Cl)cc3)cs2)cc1)N1CCNCC1 [compound 252]
≥ 20 µM,≥ 20 µM,,COc1ccc(OC)c(-c2csc(N(CCOc3ccccc3)Cc3ccc(C(=O)N4CCNCC4)cc3)n2)c1 [compound 268]
,≥ 20 µM,,COc1cccc(CN(Cc2ccc(C(=O)N3CCNCC3)cc2)c2nc(-c3ccc(C)cc3)cs2)c1OC [compound 283]
≥ 20 µM,≥ 20 µM,,O=C(c1ccc(CN(CCOc2ccccc2)c2nc(-c3ccc(F)cc3)cs2)cc1)N1CCNCC1 [compound 290]
≥ 20 µM,1 to 20 µM,,COc1ccc(-c2csc(N(Cc3ccc(C(=O)N4CCNCC4)cc3)Cc3cccc(OC)c3OC)n2)cc1 [compound 291]
≥ 20 µM,≥ 20 µM,,COc1ccccc1-c1csc(N(CCN(C(C)C)C(C)C)Cc2ccc(C(=O)N3CCNCC3)cc2)n1 [compound 292]
1 to 20 µM,1 to 20 µM,≥ 20 µM,COc1ccccc1-c1csc(N(Cc2ccc(C(=O)N3CCNCC3)cc2)Cc2cccc(OC(F)(F)F)c2)n1 [compound 328]
1 to 20 µM,1 to 20 µM,,O=C(c1ccc(CN(CCOc2ccccc2)c2nc(-c3ccc(Br)cc3)cs2)cc1)N1CCNCC1 [compound 344]
≥ 20 µM,1 to 20 µM,≥ 20 µM,COc1cccc(CN(Cc2ccc(C(=O)N3CCNCC3)cc2)c2nc(-c3ccccc3Cl)cs2)c1OC [compound 345]
